# Patent US20120255051A1, “HERBICIDE TOLERANT PLANTS” (priority 2009, published 2012)
# “And” between values parts separate entries of the source, which are not always exact repeats. Equal values may be shown once.
# System: Brassica plants comprising mutant AHAS alleles
# Test: Field trial, pre-planting treatment (0, 10, 20, 30 g a.i./ha), two locations in Canada: ERG, EST1, EST2, PPTOX, VIG1, VIG2, VIG3 scores
# Assay type: in vivo, Brassica napus
# From the text: Tests were set up and conducted to asses the growth and performance of plants comprising AHAS full knock-out alleles, and to further analyze the correlation between the presence of full knockout and missense AHAS genes in Brassica plants and plant growth and herbicide tolerance of the Brassica plants in the field. To this end, the Brassica plants identified in Example 1 and 2 were backcrossed two times with an elite parent line, and subsequently selfed twice to obtain homozygous plants (BC2S2). Plants were grown as row plots in a split plot design with three replicates (main plots=herbicide treatments, subplots=genotypes) at two locations in Canada. Treatment pre-planting was carried out on the soil about two days before sowing with a dose of 0 (treatment A), 10 (treatment B), 20 (treatment C) or 30 (treatment D) g a.i./ha of thiencarbazone methyl. Herbicide tolerance was measured by scoring for different parameters. The parameter emergence (ERG) was scored at the cotyledon stage on a scale 1-9, where 1 means late emergence and 9 means early emergence. Establishment was scored 14 days after sowing (EST1) and 21 days after sowing (EST2). Scores were from 1 to 9, where 1 is the worst establishment (least plants that emerged), and 9 is the best establishment (most plants emerged). Phytotoxicity (PPTOX) was determined after establishment. Plants were evaluated on a scale of 1 to 9, where 1=completely yellowing, 5=50% of plant is yellow and 9=no yellowing. The vigor scores (see above) were determined at 1-2 leaf stage (VIG1), 7 days after VIG1 (VIG2) and 14 days after VIG1 (VIG3). The average values (Av) and standard deviations (SD) of the scores for the different parameters are represented in Table 7a-g.
# Further, the contribution of the knock-out allele to herbicide tolerance conferred by the missense allele was calculated. First, the scores were corrected for a possible effect of the growth per se, independent of herbicide treatment. To this end, the scores for treatments B, C and D were divided by the scores for treatment A for the same genotype and for the same parameter (corrected herbicide tolerance scores). Next, the effect of the knock-out allele to these corrected herbicide tolerance scores obtained by the missense allele was calculated. Therefore, the corrected herbicide tolerance scores for the missense—knock-out allele combination was divided by the corrected herbicide tolerance scores for the missense allele—wild-type combination. In case the knock-out allele has no effect on herbicide tolerance conferred by the missense allele, this ratio should be 1. In case the knock-out allele positively contributes to the herbicide tolerance conferred by the missense allele, this ratio should be higher than 1. The results for the contribution of the knock-out allele to herbicide tolerance conferred by the missense allele as calculated above are shown in table 8.
# [1] = Location B, treatment D 30 g a.i./ha pre-planting, ratio >1 = positive contribution
smiles,measurement,setting,value
"COC(=O)c1csc(C)c1S(=O)(=O)NC(=O)n1nc(OC)n(C)c1=O [thiencarbazone-methyl, methyl 4-[(4,5-dihydro-3-methoxy-4-methyl-5-oxo-1H-1,2,4-triazol-1-yl)carbonylsulfamoyl]-5-methylthiophene-3-carboxylate]",relative contribution of HETO104 (AHAS3 KO) to herbicide tolerance conferred by HETO108 (AHAS1 missense): EST2,[1],0.95
same,relative contribution of HETO104 (AHAS3 KO) to herbicide tolerance conferred by HETO108 (AHAS1 missense): PPTOX,[1],1.44
same,relative contribution of HETO104 (AHAS3 KO) to herbicide tolerance conferred by HETO108 (AHAS1 missense): VIG1,[1],1.40
same,relative contribution of HETO104 (AHAS3 KO) to herbicide tolerance conferred by HETO108 (AHAS1 missense): VIG2,[1],1.38
same,relative contribution of HETO104 (AHAS3 KO) to herbicide tolerance conferred by HETO108 (AHAS1 missense): VIG3,[1],1.34
same,relative contribution of HETO112 (AHAS1 KO) to herbicide tolerance conferred by HETO111 (AHAS3 missense): ERG,[1],0.88
same,relative contribution of HETO112 (AHAS1 KO) to herbicide tolerance conferred by HETO111 (AHAS3 missense): EST1,[1],0.97
same,relative contribution of HETO112 (AHAS1 KO) to herbicide tolerance conferred by HETO111 (AHAS3 missense): EST2,[1],0.92
same,relative contribution of HETO112 (AHAS1 KO) to herbicide tolerance conferred by HETO111 (AHAS3 missense): PPTOX,[1],0.76
same,relative contribution of HETO112 (AHAS1 KO) to herbicide tolerance conferred by HETO111 (AHAS3 missense): VIG1,[1],0.75
same,relative contribution of HETO112 (AHAS1 KO) to herbicide tolerance conferred by HETO111 (AHAS3 missense): VIG2,[1],1.07
same,relative contribution of HETO112 (AHAS1 KO) to herbicide tolerance conferred by HETO111 (AHAS3 missense): VIG3,[1],1.11
same,"vigor3 (VIG3) score, Av","plants AHAS1 HETO108 / AHAS3 HETO104, 10 g a.i./ha (treatment B) pre-planting, Location A",8.00
same,"vigor3 (VIG3) score, Av","plants AHAS1 HETO108 / AHAS3 HETO104, 10 g a.i./ha (treatment B) pre-planting, Location B",5.33
same,"vigor3 (VIG3) score, Av","plants AHAS1 HETO108 / AHAS3 HETO104, 20 g a.i./ha (treatment C) pre-planting, Location A",6.67
same,"vigor3 (VIG3) score, Av","plants AHAS1 HETO108 / AHAS3 HETO104, 20 g a.i./ha (treatment C) pre-planting, Location B",6.67
same,"vigor3 (VIG3) score, Av","plants AHAS1 HETO108 / AHAS3 HETO104, 30 g a.i./ha (treatment D) pre-planting, Location A",6.67
same,"vigor3 (VIG3) score, Av","plants AHAS1 HETO108 / AHAS3 HETO104, 30 g a.i./ha (treatment D) pre-planting, Location B",6.00
same,"vigor3 (VIG3) score, Av","plants AHAS1 HETO108 / AHAS3 HETO111, 10 g a.i./ha (treatment B) pre-planting, Location A",8.33
same,"vigor3 (VIG3) score, Av","plants AHAS1 HETO108 / AHAS3 HETO111, 10 g a.i./ha (treatment B) pre-planting, Location B",7.67
same,"vigor3 (VIG3) score, Av","plants AHAS1 HETO108 / AHAS3 HETO111, 20 g a.i./ha (treatment C) pre-planting, Location A",7.00
same,"vigor3 (VIG3) score, Av","plants AHAS1 HETO108 / AHAS3 HETO111, 20 g a.i./ha (treatment C) pre-planting, Location B",6.67
same,"vigor3 (VIG3) score, Av","plants AHAS1 HETO108 / AHAS3 HETO111, 30 g a.i./ha (treatment D) pre-planting, Location A",8.00
same,"vigor3 (VIG3) score, Av","plants AHAS1 HETO108 / AHAS3 HETO111, 30 g a.i./ha (treatment D) pre-planting, Location B",4.33
same,"vigor3 (VIG3) score, Av","plants AHAS1 HETO108 / AHAS3 WT, 10 g a.i./ha (treatment B) pre-planting, Location A",8.33 and 7.67
same,"vigor3 (VIG3) score, Av","plants AHAS1 HETO108 / AHAS3 WT, 10 g a.i./ha (treatment B) pre-planting, Location B",5.33 and 6.00
same,"vigor3 (VIG3) score, Av","plants AHAS1 HETO108 / AHAS3 WT, 20 g a.i./ha (treatment C) pre-planting, Location A",7.33 and 7.00
same,"vigor3 (VIG3) score, Av","plants AHAS1 HETO108 / AHAS3 WT, 20 g a.i./ha (treatment C) pre-planting, Location B",6.33 and 8.00
same,"vigor3 (VIG3) score, Av","plants AHAS1 HETO108 / AHAS3 WT, 30 g a.i./ha (treatment D) pre-planting, Location A",7.00 and 7.33
same,"vigor3 (VIG3) score, Av","plants AHAS1 HETO108 / AHAS3 WT, 30 g a.i./ha (treatment D) pre-planting, Location B",5.33
same,"vigor3 (VIG3) score, Av","plants AHAS1 HETO112 / AHAS3 HETO111, 10 g a.i./ha (treatment B) pre-planting, Location A",8.00
same,"vigor3 (VIG3) score, Av","plants AHAS1 HETO112 / AHAS3 HETO111, 10 g a.i./ha (treatment B) pre-planting, Location B",7.33
same,"vigor3 (VIG3) score, Av","plants AHAS1 HETO112 / AHAS3 HETO111, 20 g a.i./ha (treatment C) pre-planting, Location A",7.00
same,"vigor3 (VIG3) score, Av","plants AHAS1 HETO112 / AHAS3 HETO111, 20 g a.i./ha (treatment C) pre-planting, Location B",5.67
same,"vigor3 (VIG3) score, Av","plants AHAS1 HETO112 / AHAS3 HETO111, 30 g a.i./ha (treatment D) pre-planting, Location A",7.67
same,"vigor3 (VIG3) score, Av","plants AHAS1 HETO112 / AHAS3 HETO111, 30 g a.i./ha (treatment D) pre-planting, Location B",5.67
same,"vigor3 (VIG3) score, Av","plants AHAS1 HETO112 / AHAS3 WT, 10 g a.i./ha (treatment B) pre-planting, Location A",1.00
same,"vigor3 (VIG3) score, Av","plants AHAS1 HETO112 / AHAS3 WT, 10 g a.i./ha (treatment B) pre-planting, Location B",1.00
same,"vigor3 (VIG3) score, Av","plants AHAS1 HETO112 / AHAS3 WT, 20 g a.i./ha (treatment C) pre-planting, Location A",1.00
same,"vigor3 (VIG3) score, Av","plants AHAS1 HETO112 / AHAS3 WT, 20 g a.i./ha (treatment C) pre-planting, Location B",1.00
same,"vigor3 (VIG3) score, Av","plants AHAS1 HETO112 / AHAS3 WT, 30 g a.i./ha (treatment D) pre-planting, Location A",1.00
same,"vigor3 (VIG3) score, Av","plants AHAS1 HETO112 / AHAS3 WT, 30 g a.i./ha (treatment D) pre-planting, Location B",1.00
same,"vigor3 (VIG3) score, Av","plants AHAS1 WT / AHAS3 HETO104, 10 g a.i./ha (treatment B) pre-planting, Location A",1.00
same,"vigor3 (VIG3) score, Av","plants AHAS1 WT / AHAS3 HETO104, 10 g a.i./ha (treatment B) pre-planting, Location B",1.00
same,"vigor3 (VIG3) score, Av","plants AHAS1 WT / AHAS3 HETO104, 20 g a.i./ha (treatment C) pre-planting, Location A",1.00
same,"vigor3 (VIG3) score, Av","plants AHAS1 WT / AHAS3 HETO104, 20 g a.i./ha (treatment C) pre-planting, Location B",1.00
same,"vigor3 (VIG3) score, Av","plants AHAS1 WT / AHAS3 HETO104, 30 g a.i./ha (treatment D) pre-planting, Location A",1.00
same,"vigor3 (VIG3) score, Av","plants AHAS1 WT / AHAS3 HETO104, 30 g a.i./ha (treatment D) pre-planting, Location B",1.00
same,"vigor3 (VIG3) score, Av","plants AHAS1 WT / AHAS3 HETO111, 10 g a.i./ha (treatment B) pre-planting, Location A",7.67 and 7.00
same,"vigor3 (VIG3) score, Av","plants AHAS1 WT / AHAS3 HETO111, 10 g a.i./ha (treatment B) pre-planting, Location B",7.33
same,"vigor3 (VIG3) score, Av","plants AHAS1 WT / AHAS3 HETO111, 20 g a.i./ha (treatment C) pre-planting, Location A",6.67
same,"vigor3 (VIG3) score, Av","plants AHAS1 WT / AHAS3 HETO111, 20 g a.i./ha (treatment C) pre-planting, Location B",6.00
same,"vigor3 (VIG3) score, Av","plants AHAS1 WT / AHAS3 HETO111, 30 g a.i./ha (treatment D) pre-planting, Location A",6.67 and 6.33
same,"vigor3 (VIG3) score, Av","plants AHAS1 WT / AHAS3 HETO111, 30 g a.i./ha (treatment D) pre-planting, Location B",4.67 and 5.33
same,"vigor3 (VIG3) score, Av","plants AHAS1 WT / AHAS3 WT, 10 g a.i./ha (treatment B) pre-planting, Location A",1.00
same,"vigor3 (VIG3) score, Av","plants AHAS1 WT / AHAS3 WT, 10 g a.i./ha (treatment B) pre-planting, Location B",1.33
same,"vigor3 (VIG3) score, Av","plants AHAS1 WT / AHAS3 WT, 20 g a.i./ha (treatment C) pre-planting, Location A",1.00
same,"vigor3 (VIG3) score, Av","plants AHAS1 WT / AHAS3 WT, 20 g a.i./ha (treatment C) pre-planting, Location B",1.00
same,"vigor3 (VIG3) score, Av","plants AHAS1 WT / AHAS3 WT, 30 g a.i./ha (treatment D) pre-planting, Location A",1.00
same,"vigor3 (VIG3) score, Av","plants AHAS1 WT / AHAS3 WT, 30 g a.i./ha (treatment D) pre-planting, Location B",1.00
